Measurements as given in US6242481A, “Methods for the inhibition of angiogenesis with arglabin” (priority 1999, dated 2001).
In brackets after ≈: the same amount, converted by molar mass.

Tests used:
cells [1] = conditions: cited from earlier work
[2] = system: tumor growth and metastases; conditions: cited from earlier work
[3] = system: vascular endothelial cell; conditions: cited from earlier work
[4] = format: in vivo; conditions: mice; Table 1
From the text: (§1) The neovascularization experiment described in Example 2 was repeated using the corneal micropockets in mice. The compounds tested were cytochalasin E, astaphiatin, arglabin, epoxycytochalasin-H, ozonolyzed cytochalasin-E, and precursor cytochalasin-E. The results of these compound's ability to inhibit angiogenesis are shown in Table 1.

[5] = system: corneal neovascularization (corneal micropockets); assay: neovascularization experiment using corneal micropockets in mice; format: in vivo; conditions: mouse corneal micropockets; Table 1
Method: (§2) Pellets for implantation into rabbit corneas were made by mixing 110 μl of saline containing 12 μg of recombinant bFGF (Takeda Pharmaceuticals-Japan) with 40 mg of sucralfate (Bukh Meditec-Denmark); this suspension was added to 80 μl of 12% hydron (Interferon Sciences) in ethanol. 10 μl aliquots of this mixture was then pipetted onto teflon pegs and allowed to dry producing approximately 17 pellets. A pellet was implanted into corneal micropockets of each eye of an anesthetized female New Zealand white rabbit, 2 mm from the limbus followed by topical application of erythromycin ointment onto the surface of the cornea. The animals were fed daily from 2 days post-implantation by gastric lavage with cytochalasin E or the aldehyde methyl ester derivative of cytochalasin E suspended in 0.5% carboxymethyl cellulose or 0.5% carboxymethyl cellulose alone. The animals were examined with a slit lamp every other day in a masked manner by the same corneal specialist. The area of corneal neovascularization was determined by measuring with a reticule the vessel length (L) from the limbus and the number of clock hours (C) of limbus involved. A formula was used to determine the area of a circular band segment: C/12*3.1416 [r^2 -(r-L)^2 ] where r=6 mm the measured radius of the rabbit cornea.
as §1

[6] = system: Bovine capillary endothelial (BCE) cells; assay: inhibition of bovine capillary endothelial cell proliferation (BCE), compared to NIH3T3 fibroblasts; format: cell-based; conditions: for less active (inhibition of endothelial cell proliferation): relative to cytochalasin E
Method: (§3) Bovine capillary endothelial (BCE) cells and Swiss mouse embryo fibroblast cells (NIH3T3) were isolated as previously described (Folkman, , et al., Proc. Nat. Acad. Sci USA., 76:5217-21(1979)) and maintained in DMEM supplemented with 10% heat-inactivated bovine calf serum (BCS), antibiotics, and 3 ng/ml recombinant human bFGF (Scios Nova, Mountainview,Calif.). Monolayers of the cells growing in 6-well plates were dispersed in a 0.05% trypsin solution. The cells were re-suspended with DMEM containing 10% BCS. Approximately 12,500 cells in 0.5 ml were added to each well of gelatinized 24-well tissue culture plates and incubated at 37° C. (in 10% CO2) for 24 hours. The medium was replaced with […] of fresh DMEM containing 5% BCS. Samples of cytochalasin E, cytochalasin A, and cytochalasin H were added to each well in triplicate. After 30 minutes of incubation, bFGF was added to a final concentration of 1 ng/ml. After 72 hours of incubation, cells were trypsinized, re-suspended in Hematall (Fisher Scientific, Pittsburg, Pa.) and counted with a Coulter counter.
FIG. 2 is a graph showing the inhibition of bovine capillary endothelial cell proliferation (BCE) (squares) compared to Swiss mouse embryo fibroblast cells (NIH3T3). […] The ordinate measures drug concentration in grams per milliliter.

Lewis lung carcinoma [7] = assay: Lewis lung carcinoma tumor growth (Example 5); format: in vivo, mice (C57BI6/J); conditions: 2 mg/kg/day
Method: (§4) Syngeneic C57BI6/J six-week-old male mice were injected (subcutaneous dorsum) with 1×10^6 tumor cells. Visible tumors first appeared after 3-4 days. When tumors were approximately 1500 mm^3 in size, mice were randomized into two groups. The primary tumor was completely excised in the first group and left intact in the second group after a sham operation. Although tumors from 500 mm^3 to 3000 mm^3 inhibited growth of metastases, 1500 mm^3 was the largest primary tumor that could be safely resected with high survival and no local recurrence.
This experimental model gave reproducible data and the experiment described is reproducible. This tumor is labeled "Lewis lung carcinoma--low metastatic" (LLC-Low).

Lewis lung carcinoma [8] = assay: Lewis lung experiment, inhibition of tumor growth (Example 6); format: in vivo, mice (C57BI6/J); conditions: 2.0 mg/kg qd (printed 'od' for methanolyzed compound)
Method: as §4
The Lewis lung experiment of Example 5 was repeated using cytochalasin E and methanolyzed cytochalasin E. The results of this experiment are presented in the table below.

[9] = system: basic fibroblast growth factor (bFGF) driven corneal neovascularization; assay: rabbit cornea assay, bFGF driven corneal neovascularization; format: in vivo, rabbit (New Zealand white); conditions: 2 mg/kg/day, text says subcutaneously administered (method: gastric lavage)
Method: as §2

cells [10] = conditions: cited from earlier work; remark: listed apart in the source
[11] = system: Bovine capillary endothelial (BCE) cells; assay: inhibition of bovine capillary endothelial cell proliferation (BCE), cytochalasin E vs epoxycytochalasin J; format: cell-based; conditions: compared with cytochalasin E; FIG. 3
Method: as §3, with “(BCE)” for “(BCE) cells and Swiss mouse embryo fibroblast cells (NIH3T3)”, “76:5217-21 (1979))” for “76:5217-21(1979))”, “Mountainview, Calif.).” for “Mountainview,Calif.).”, “E” for “E, cytochalasin A,”, “epoxycytochalasin J” for “cytochalasin H”
The ordinate measures drug concentration in grams per milliliter.

tumors cells = conditions: cited from earlier work
[12] = system: tumor-induced angiogenesis in mouse dermis; conditions: cited from earlier work

In the case of `C=C1C(C)C2C(Cc3ccccc3)NC(=O)C23OC(=O)/C=C/C(O)CCCC(C)C/C=C/C3C1O` (single isomer, unassigned) [cytochalasin B], the “changes in cell structure” value (cells [1]) is given as “a number of morphological changes in cell structure”.

In the case of `CO[C@@H]1[C@H](OC(=O)NC(=O)CCl)CC[C@]2(CO2)[C@H]1[C@@]1(C)O[C@@H]1CC=C(C)C` [AGM-1470], the “inhibition of tumor growth and metastases in vivo” value [2] is listed as “inhibits tumor growth and metastases in vivo”, the “activity in inhibiting tumor cell proliferation in vitro” value ([3]; compared with inhibition in vivo) is listed as “much less active” and the “half-maximal inhibition of vascular endothelial cell proliferation at lower concentration than tumor cell proliferation” value ([3]; endothelial vs tumor cell proliferation) is listed as 4 logs.

With `C=C1C(=O)O[C@@H]2[C@H]3C(C)=CC[C@@]34O[C@@]4(C)CC[C@@H]12` [Arglabin] the “% Weight Loss” value [4] was 2.69% and the “% Inhibition (ability to inhibit angiogenesis)” value (shortened to “% Inhibition”) [5] was 22.72%.

With `C=C1C(=O)OC2C1CCC(=C)C1CC3OC3(C)C12` (stereo not drawn) [Astaphiatin] the “% Weight Loss” value [4] was 6.92% and the “% Inhibition” value [5] was 33.56%.

With `CC(=O)O[C@@H]1/C=C/[C@](C)(O)C[C@@H](C)C/C=C/[C@H]2[C@@H]3O[C@]3(C)[C@@H](C)[C@H]3[C@H](Cc4ccccc4)NC(=O)[C@@]312` [Epoxycytochalasin-H] the “% Weight Loss” value [4] was 2.46% and the “% Inhibition” value [5] was 27.35%.

In the case of `CC1C2C(Cc3ccccc3)NC(=O)C2(O)C(CO)C2OC12C` (stereo not drawn) [Ozonolyzed Cytochalasin-E], the “% Weight Loss” value [4] is reported as 4.00% and the “% Inhibition” value [5] is reported as 20.00%.

With `C=C1C(C)C2C(Cc3ccccc3)NC(=O)C23OC(=O)/C=C/C(=O)CCCC(C)C/C=C/C3C1O` (stereo not drawn) [cytochalasin A] the “less active (inhibition of endothelial cell proliferation)” value [6] was 1000 fold.

In the case of `CC1C/C=C/C2C3OC3(C)C(C)C3C(Cc4ccccc4)NC(=O)C23OC(=O)O/C=C/C(C)(O)C1=O` [cytochalasin E, (6S,7S,16R,18R)-6,7-epoxy-18-hydroxy-16-methyl-10-phenyl-21 ,23-dioxa-[13]cytochalasa-13(E), 19(E)-diene-1,17,22-trione], the “% Weight Loss” value [4] is reported as 0.00%, the inhibited tumor growth (Lewis lung carcinoma [7]) is reported as 74% and the “Inhibition of Tumor Growth, T/C” value (Lewis lung carcinoma [8]) is reported as 0.28. The “% Inhibition” value [5] was 45.00%, the “inhibition of bFGF driven corneal neovascularization” value [9] was 50% and the IC50 ([6]; Bos taurus, Endothelial cell, bFGF 1 ng/ml, 72 hours) was 0.002 ng/mL (≈ 0.00404 nM).

For `C=C1C(C)C2C(Cc3ccccc3)NC(=O)C23C(OC(C)=O)/C=C/C(C)(O)CC(C)C/C=C/C3C1O` (stereo not drawn) [cytochalasin H], the disaggregation of cells (cells [10]) is listed as “produces disaggregation of cells” and the “less active (inhibition of endothelial cell proliferation)” value [6] is listed as 1000 fold.

In the case of `C[C@H]1C/C=C/[C@H]2[C@@H]3O[C@]3(C)[C@@H](C)[C@@H]3[C@H](Cc4ccccc4)NC(=O)[C@]32[C@H](O)/C=C/[C@](C)(O)C1` [epoxycytochalasin J], the “effectiveness as inhibitor of bovine capillary endothelial cell proliferation” value [11] is reported as “even more effective inhibitor”.

In the case of “bFGF: basic fibroblast growth factor (bFGF)”, the “mitogen for the tumor cells in vitro” value (tumors cells) is listed as “not a mitogen”.

For interferon alpha, the “inhibition of tumor-induced angiogenesis” value [12] is listed as “inhibit tumor-induced angiogenesis”.
